US20240018592A1, “METHODS OF ASSESSING THE THERAPEUTIC ACTIVITY OF AGENTS FOR THE TREATMENT OF IMMUNE DISORDERS” (Technion Research & Development Foundation Limited, priority 2020, published 2024)

Key:
Assay type in all cases: in vivo, human
[1] = test system: immune age (IMM-AGE) score of peripheral blood; assay: Immune-age score from whole blood gene expression (Affymetrix Clariom S, single-sample GSEA) before and after infliximab
Description: (§1) Patient samples were obtained at three time points: at baseline, before infliximab treatment, and two and fourteen weeks post first treatment and assayed for gene expression microarray data.
Blood transcriptome processing and analysis: Whole blood was preserved in PAXgene Blood RNA tubes (PreAnalytiX). RNA was extracted and assayed using Affymetrix Clariom S chips (Thermo Fisher Scientific). The raw gene array data were processed to obtain a log 2 expression value for each gene probe set using the RMA (robust multichip average) method available in the affy R package. Probe set annotation was performed using affycoretools and clariomshumantranscriptcluster.db packages in R. Data were further adjusted for batch effect using empirical Bayes framework applied by the Combat R package.
Using a high-resolution longitudinal gene expression dataset from peripheral blood samples of 24 CD patients, 15 and 9 responding and non-responding patients, at three time points: pretreatment, 2 and 14 weeks post first treatment, the present inventors evaluated the samples' immune-age score reflecting the samples' position along the high dimensional IMM-AGE trajectory. To quantify the immune age of the CD patients, they used normalized gene expression measurements of the following genes: ABLIM1, AFF3, BACH2, BCL11A, BIRC3, BLNK, BTLA, C11orf31, C6orf48, CCR6, CCR7, CD200, CD22, CD27, CD28, CDCA7L, CHMP7, CR2, DPP4, E2F5, EPHX2, FAIM3, FAM102A, FAM134, FCRL1, FCRL2. HOOK1, HVCN1, IL6ST, IMPDH2, KIAA0748, LEF1, LRRN3, MYC, NELL2, NT5E, P2RX5, PAQR8, PLAG1, PTPRK, RCAN3, SCML1, SLC7A6, SNX9, STRBP, SUSD3, TCF4, TCF7, TCL1A, TCTN1, UXT, VPREB3, ZNF101, ZNF671, CRTC3, STAP1 and HLA-DOB.
The immune-age of the CD patients was estimated by using single-sample GSEA algorithm (Barbie D A et al. Nature 462, 108-112 (2009)). An external IBD (CD and UC) disease specific molecular response axis was used to describe the patients' dynamics by generating a PCA on differential gene expression between active and in-active disease states treated with variety of treatment regimens (using public data, GSE94648).

[2] = Infliximab drug levels and anti-drug antibodies (ADA) after first treatment; settings: drug level, mean ± SEM, levels >20 taken as 20
Experimental: (§2) Sample collection: The cohort consisted of 24 Crohn's disease (CD) patients who received Infliximab anti-TNF treatment at the gastroenterology department of the Rambam Health Care Campus (RHCC) and met the study inclusion criteria as follows: 1) Adequately documented active luminal CD, as phenotyped by a gastroenterologist with expertise in IBD; 2) Documented decision to initiate full infliximab induction regimen with 5 mg/kg induction dosing (i.e. at weeks 0, 2, 6). Patients that had past exposure to Infliximab, Adalimumab or Vedolizumab, or patients who had active infection including febrile diseases or intra-abdominal or perianal abscess were excluded.
as §1

[3] = test system: Crohn's disease (CD) patients; assay: Infliximab induction treatment of Crohn's disease patients: clinical and laboratory outcome (CRP, albumin, HBI, clinical response, response classification); settings: for HBI 14 w post first treatment: Harvey-Bradshaw Index; for HBI 14 w post first treatment / Albumin 2 w post first treatment / Albumin 14 w post first treatment / CRP 2 w post first treatment / CRP 14 w post first treatment: mean ± SEM
Experimental: as §2, §1
Patient response classification was defined by decision algorithm, as described previously (Gaujoux et al. 2018). Briefly, patients were classified as responders based on clinical remission, which was defined as cessation of diarrhea and abdominal cramping or, in the cases of patients with fistulas, cessation of fistula drainage and complete closure of all draining fistulas at week 14, coupled with a decision of the treating physician to continue IFX therapy at the current dosing and schedule. Patients that were defined as partial responders, classification was determined by the decision algorithm that included the following hierarchical rules: 1) steroid dependency at week fourteen; 2) biomarker dynamics (Calprotectin and CRP) and 3) response according to clinical state at week 26.
Applying the decision algorithm and exclusion criteria, yielded a final study cohort of 15 and 9 responding and non-responding patients, respectively.

[4] = of 24 CD patients, classified by decision algorithm at week 14

Infliximab [IFX]
shift of patients' immune age ([1]; cohort of 24 CD patients treated with anti-TNF (Infliximab)): dramatically shift patients' immune age | immune age dynamics in responders ([1]; responders versus non-responders, post treatment relative to baseline): shifted back their immune age and presented a significant drop | immune age score in responders, early ([1]; responders, 2 weeks post treatment): significant reduced immune age score | IFX 2 w post first treatment ([2]; IFX non-responders (n = 9)): 8.9 ± 1.9 ng/µL | IFX 14 w post first treatment ([2]; IFX non-responders (n = 9)): 0.9 ± 0.3 ng/µL | IFX 2 w post first treatment ([2]; IFX responders (n = 15)): 10.7 ± 1.8 ng/µL | IFX 14 w post first treatment ([2]; IFX responders (n = 15)): 3.3 ± 0.5 ng/µL | HBI 14 w post first treatment ([3]; IFX non-responders (n = 9)): 5 ± 2.2 | HBI 14 w post first treatment ([3]; IFX responders (n = 15)): 0.8 ± 0.3 | Albumin 2 w post first treatment ([3]; IFX non-responders (n = 9)): 3.3 ± 0.3 | Albumin 14 w post first treatment ([3]; IFX non-responders (n = 9)): 3.1 ± 0.2 | CRP 2 w post first treatment ([3]; IFX non-responders (n = 9)): 8.8 ± 3.2 | CRP 14 w post first treatment ([3]; IFX non-responders (n = 9)): 28.0 ± 13.6 | Albumin 2 w post first treatment ([3]; IFX responders (n = 15)): 3.7 ± 0.1 | Albumin 14 w post first treatment ([3]; IFX responders (n = 15)): 4.0 ± 0.1 | CRP 14 w post first treatment ([3]; IFX responders (n = 15)): 5.1 ± 1.8 | CRP 2 w post first treatment ([3]; IFX responders (n = 15), 5 mg/kg induction): 2.7 ± 0.7 | non-responding patients [3, 4]: 9 patients | responding patients [3, 4]: 15 patients
